From patent publication US20140228407A1, “TETRA-PYRIDINE COMPOUNDS AND COMPOSITION FOR PROTECTING CELLS, TISSUES AND ORGANS AGAINST ISCHEMIA-REPERFUSION INJURY” (YISSUM RESEARCH DEVELOPMENT COMPANY OF THE HEBREW …, priority 2011, published 2014)

How the values were obtained:
[1] = tested on: neonate rat cardiomyocyte cells; test: Hypoxia/ischemia in neonatal rat cardiomyocyte cultures, LDH release; format: cell-based; conditions: 30, 100 and 300 nm compound vs 1 μM TPEN; 150 min ischemia then reoxygenation
Procedure: Rat hearts (1-2 days old) were sterilely removed and bathed three times in Ca^2+- and Mg^2+-free PBS to remove excess blood cells. The hearts were minced to small fragments and then agitated in a proteolytic enzyme-RDB solution prepared from a fig tree extract as described previously (Brik et al., 1990; Shneyvays et al., 2001). The RDB was diluted 1:200 in PBS at 25° C. for a few cycles of 10 min each. The supernatant suspension containing dissociated cells, to which medium containing 10% horse serum was added, was centrifuged at 500 g for 5 min. After centrifugation, the supernatant phase was discarded, and cells were resuspended in Dulbecco's modified Eagle medium supplemented with 10% heat-inactivated horse serum and 0.5% chick embryo extract. Cell suspensions were diluted to 1×10^6 cells/ml, and 300 μl was placed in 24 well plates (4 plates) collagen/gelatin-coated plastic culture dishes. Cultures were incubated in a humidified atmosphere of 5% CO2 and 95% air at 37° C. […] The growth medium was replaced every 3 days. The experiments were performed in vitro on these cardiomyocyte cultures after 3 to 5 days. […]
LDH activity was determined using LDH-L kit (Thermo Trace, Melbourne, Australia) within the cardiac cell medium (PBS). […] LDH enzymatic activity was measured in a spectrophotometer at a wavelength of 340 nm at 30° C. […]

[2] = tested on: model of ischemia/reperfusion in the CD rat; test: Rat model of ischemia/reperfusion, cardiovascular monitoring (blood pressure, heart rate; Phase B); format: in vivo
Procedure: The animals in Phase B were monitored for selected cardiovascular endpoints from at least 15 minutes prior to acute myocardial infarction until at approximately 1 hour post reperfusion. Blood samples for the evaluation of Troponin I were collected from all surviving Phase B animals prior to coronary artery occlusion and at termination. At study termination, the Phase B animals were submitted to necropsy for limited necropsy examinations and infarct analysis.
In Phase B, Compound #6 was administered once on Day 0 via intravenous infusion at dose levels of 0.2 and 2 mg/kg. The doses were administered at a dose volume of 1 mL/kg (0.05 [2 mg/kg] or 0.033 [0.2 mg/kg] mL/kg/minute). Two control groups received the vehicle (saline) or the vehicle for Compound #6 (10% (w/v) 2-hydroxypropyl-beta-cyclodextrin and 100 mM sodium chloride in deionized water) in the same manner as the 2 mg/kg treated group. The vehicles and 2 mg/kg Compound #6 were administered intravenously via a slow infusion starting 3 to 14 minutes prior to reperfusion and continuing for 20 minutes to 20 minutes and 32 seconds, which was approximately 6 to 17 minutes after reperfusion (depending on the infusion start time). The 0.2 mg/kg Compound #6 was administered intravenously via a slow infusion starting 10 minutes prior to reperfusion and continuing for 30 minutes to 30 minutes and 30 seconds, which was approximately 20 minutes after reperfusion. The positive control article, Erythropoietin, was administered at 5000 IU/kg via a bolus intravenous injection. The positive control article dose was administered at a dose volume of 2.5 mL/kg. The positive control was administered via a 3 to 60 second injection at 5 minutes prior to reperfusion.
In Phase B, animals were anesthetized for monitoring of selected cardiovascular parameters. For experimentation, the blood pressure catheter implanted in the carotid artery was attached to an external transducer and data acquisition was started. Blood pressure (systolic, diastolic, and mean arterial) and heart rate (derived from blood pressure) were monitored from at least 15 minutes prior to acute myocardial infarction (AMI) until at least 1 hour after reperfusion. Individual animal cardiovascular data tables are not reported but are maintained in the study file.

## Cc1ccc(CN(CCN(Cc2ccc(C)cn2)Cc2ccc(C)cn2)Cc2ccc(C)cn2)nc1 [Compound #6]
[1]
  protective effect against hypoxic insult (LDH release) compared with TPEN, FIG. 1A: significantly better protective outcome from hypoxia than TPEN
[2]; 0.2 mg/kg, within 5-10 minutes of reperfusion
  mean arterial pressures after reperfusion: increased
[2]; 2 mg/kg, approximately 5 minutes following completion of the infusion
  time at which blood pressure reached peak levels post reperfusion: approximately 20 minutes
[2]; 0.2 and 2.0 mg/kg
  heart rate: unaffected
[2]; both dose levels (0.2 and 2.0 mg/kg), returned to levels comparable to vehicle animals after infusion
  blood pressures during infusion: slightly elevated
